Measurements as given in US6087358A (priority 1997, dated 2000).
≈ marks a conversion by molar mass, not a printed value. Where two headings read alike, the source gives them in different places.

Assays:
[1] = system: Mycobacterium bovis BCG (recombinant strain); test: microbe, parasite or virus in culture; type: cell-based; details: Mycobacterium tuberculosis variant bovis BCG, BCG, 144 h; 6 days 37° C.; read-out: MIC, column A, 3(S) compounds
[2] = system: Clostridium difficile ATCC 17857; test: In vitro inhibition of Clostridium difficile (Oxyrase broth microdilution MIC); type: cell-based; details: Clostridioides difficile, ATCC17857; Clostridium difficile ATCC 17857, Oxyrase broth; read-out: MIC, column D, 3(S) compounds
Helicobacter pylori = test: In vitro inhibition of Helicobacter pylori (broth microdilution MIC); details: for MIC: Helicobacter pylori
[3] = system: Helicobacter pylori Strain 4187E; test: In vivo activity against Helicobacter pylori strain 4187E in mice; set-up: species or system in outbred female white mice; details: oral gavage, four days
Source text: Outbred female white mice (20 grams) were infected by oral gavage with 10^7 -10^8 colony forming units of H. pylori strain 4187E (originally isolated from a patient with a duodenal ulcer). […] Treatment continued for four days. Clarithromycin, administered at the same concentration and for the same duration, was included as a positive control. One group of animals also received an equal volume of formulation vehicle alone, to provide a negative control.
Five days after cessation of treatment, all animals were sacrificed, the stomachs were removed, opened, and the contents washed out. The entire mucosal surface was then spread evenly over the surface of an agar plate containing antibiotics appropriate for the prevention of growth of microorganisms other than Helicobacter spp. After seven days incubation under microaeropilic conditions at 37° C., culture plates were evaluated for bacterial growth.

Cryptosporidium parvum = test: Inhibition of Cryptosporidium parvum (ELISA, infected HCT-8 monolayers); type: cell-based; details: for inhibition at 25 µg/mL / inhibition at 50 µg/mL / inhibition at 100 µg/mL / inhibition at 200 µg/mL: Cryptosporidium parvum, HCT-8, 48 h, read-out: Percent Inhibition of C. parvum; for inhibition at 25 µg/mL: 25 μg/mL; for inhibition at 50 µg/mL: 50 μg/mL; for inhibition at 100 µg/mL: 100 μg/mL
Protocol: Susceptibility testing against Cryptosporidium was performed according to published procedures (K. Woods, M. Nesterenko, S. Upton, "Development of a microtiter ELISA to quantify development of Cryptosporidium parvum in vitro," FEMS Microbiology Letters, 128:89-94 (1995).
Compounds were solubilized to a concentration of 100 mg/mL in 100% DMSO. DMSO solutions of test compounds were added to the test wells of a microplate at a volume that produced a final concentration of DMSO of 0.2%. Monolayers of human ileocecal adenocarcinoma cells (HCT-8) were prepared by growth in RPMI 1640 medium in 96-Well tissue culture trays for 24 h. Oocysts of C. parvum were allowed to excyst in 10% bleach for 10 min prior to use. Monolayers were then infected with 2-3×10^4 oocysts/well and incubated in the presence or absence of compound for 48 h at 35° C. in 5% CO2 and 95% humidity. Background consisted of wells containing killed oocysts (freeze thaw cycle following 30 sec exposure to liquid nitrogen). Growth control wells were infected with 2-3×10^4 oocysts/well in the absence of test compounds. At the end of incubation, wells were washed and fixed by adding 100 uL of 4% formalin in phosphate buffered saline (pH 7.3) per well for 2 h. After blocking with 1% bovine serum albumin, and 0.002% Tween 20, 50 uL of rat anti-Cryptosporidium membrane protein antiserum was added. After 30 min, wells were washed in PBS and 50 uL of secondary antibody (goat anti-rat antibody conjugated with horseradish peroxidase) was added. After 20-30 min, wells were washed again in PBS and 50 uL of 3,3',5,5'-tetramethylbenzidine solution was added. Plates were allowed to develop for 10-15 min and the optical density was read at 630 nm. Percent inhibition was calculated by comparing the optical density of the drug treated group to that of the untreated control.

[4] = 72 h, read-out: MIC against Helicobacter pylori, strain 17 (Table 5A)
[5] = 72 h, read-out: MIC against Helicobacter pylori, strain 19 (Table 5A)
[6] = 72 h, read-out: MIC against Helicobacter pylori, strain 20 (Table 5A)
[7] = 72 h, read-out: MIC against Helicobacter pylori, strain 40 (Table 5A)
[8] = 72 h, read-out: MIC against Helicobacter pylori, strain 43 (Table 5A)
[9] = 72 h, read-out: MIC against Helicobacter pylori, strain 76 (Table 5A)
[10] = ATCC43504, 72 h, read-out: MIC against Helicobacter pylori, strain ATCC 43504 (Table 5A)

Structure (SMILES) | MIC [1] [µg/mL] | MIC [2] [µg/mL] | MIC (Helicobacter pylori; [4]) [µg/mL] | MIC (Helicobacter pylori; [5]) [µg/mL] | MIC (Helicobacter pylori; [6]) [µg/mL] | MIC (Helicobacter pylori; [7]) [µg/mL] | MIC (Helicobacter pylori; [8]) [µg/mL] | MIC (Helicobacter pylori; [9]) [µg/mL] | MIC (Helicobacter pylori; [10]) [µg/mL] | inhibition at 25 µg/mL (Cryptosporidium parvum) [%] | inhibition at 50 µg/mL (Cryptosporidium parvum) [%] | inhibition at 100 µg/mL (Cryptosporidium parvum) [%] | inhibition at 200 µg/mL (Cryptosporidium parvum; 200 μg/mL) [%] | other results
O=[N+]([O-])c1cn2c(n1)OC[C@@H](OCc1c(F)c(F)c(F)c(F)c1F)C2 [PA-652] | > 5 | 3.12 (≈ 8.54 µM) | – | – | – | – | – | – | – | – | – | – | – | –
CC[C@H]1OC(=O)[C@H](C)[C@@H](O[C@H]2C[C@@](C)(OC)[C@@H](O)[C@H](C)O2)[C@H](C)[C@@H](O[C@@H]2O[C@H](C)C[C@H](N(C)C)[C@H]2O)[C@](C)(OC)C[C@@H](C)C(=O)[C@H](C)[C@@H](O)[C@]1(C)O [Clarithromycin, reference compound] | – | – | 0.016 (≈ 0.0214 µM) | 8 (≈ 10.7 µM) | 8 (≈ 10.7 µM) | 0.016 (≈ 0.0214 µM) | 0.008 (≈ 0.0107 µM) | 0.032 (≈ 0.0428 µM) | 0.06 (≈ 0.0802 µM) | – | – | – | – | MICs of control drugs relative to expected values (Helicobacter pylori; H. pylori ATCC 43): within the expected values; MIC (Helicobacter pylori; 72 h, read-out: MIC against Helicobacter pylori, strain B40, Met-S, Clar-S (Table 5B)): < 0.015 µg/mL; MIC (Helicobacter pylori; 72 h, read-out: MIC against Helicobacter pylori, strain B76, Met-R, Clar-S (Table 5B)): < 0.015 µg/mL; MIC (Helicobacter pylori; 72 h, read-out: MIC against Helicobacter pylori, strain C1649, Met-R, Clar-R (Table 5B)): > 4 µg/mL; MIC (Helicobacter pylori; 72 h, read-out: MIC against Helicobacter pylori, strain C11403, Met-S, Clar-R (Table 5B)): 4 µg/mL (≈ 5.35 µM); MIC (Helicobacter pylori; 72 h, read-out: MIC against Helicobacter pylori, strain C19765 (Table 5B)): < 0.015 µg/mL; MIC (Helicobacter pylori; 72 h, read-out: MIC against Helicobacter pylori, strain RD26, Met-S, Clar-S (Table 5B)): 0.03 µg/mL (≈ 0.0401 µM); MIC (Helicobacter pylori; 72 h, read-out: MIC against Helicobacter pylori, strain rd26, Met-S, Clar-S (Table 5B)): 0.03 µg/mL (≈ 0.0401 µM); MIC (Helicobacter pylori; ATCC43504, 72 h, read-out: MIC against Helicobacter pylori, strain ATCC 43504, Met-R, Clar-S (Table 5B)): 0.03 µg/mL (≈ 0.0401 µM); MIC (Helicobacter pylori; ATCC43526, 72 h, read-out: MIC against Helicobacter pylori, strain ATCC 43526, Met-R, Clar-S (Table 5B)): < 0.015 µg/mL; MIC (Helicobacter pylori; ATCC43579, 72 h, read-out: MIC against Helicobacter pylori, strain ATCC 43579, Met-S, Clar-S (Table 5B)): < 0.015 µg/mL; MIC (Helicobacter pylori; ATCC43629, 72 h, read-out: MIC against Helicobacter pylori, strain ATCC 43629, Met-S, Clar-S (Table 5B)): 0.03 µg/mL (≈ 0.0401 µM); % Eradication ([3]; twice daily 5 mg/kg): 0%; % Eradication ([3]; twice daily 50 mg/kg): 100%
O=[N+]([O-])c1cn2c(n1)OC[C@@H](OCc1ccc(F)cc1F)C2 [PA-654] | > 5 | 3.12 (≈ 10 µM) | – | – | – | – | – | – | – | – | – | – | – | –
CCCCCCCCC(=O)N[C@@H]1COc2nc([N+](=O)[O-])cn2C1 [PA-1139] | 0.06 (≈ 0.185 µM) | 3.12 (≈ 9.62 µM) | > 25 | 1.5 (≈ 4.62 µM) | 0.8 (≈ 2.47 µM) | 0.8 (≈ 2.47 µM) | 1.5 (≈ 4.62 µM) | 25 (≈ 77.1 µM) | > 25 | -13 | -3 | 56 | 98.9 | –
O=C(Nc1ccc(OC(F)(F)F)cc1)N[C@@H]1COc2nc([N+](=O)[O-])cn2C1 [PA-1298] | 0.015 (≈ 0.0387 µM) | – | – | – | – | – | – | – | – | 11.9 | 30 | 85 | – | Toxic (given in place of percent inhibition) (Cryptosporidium parvum; 200 μg/mL, HCT-8 monolayers): Toxic
CCCCCCCCc1ccc(CO[C@@H]2COc3nc([N+](=O)[O-])cn3C2)cc1 [PA-1142] | 0.06 (≈ 0.155 µM) | 1.5 (≈ 3.87 µM) | > 25 | 0.4 (≈ 1.03 µM) | 0.8 (≈ 2.06 µM) | 1.5 (≈ 3.87 µM) | 0.4 (≈ 1.03 µM) | 3.12 (≈ 8.05 µM) | > 25 | – | – | – | – | –
O=C(N[C@@H]1COc2nc([N+](=O)[O-])cn2C1)c1ccc(OC(F)(F)F)cc1 [PA-1150] | 0.5 (≈ 1.34 µM) | – | – | – | – | – | – | – | – | 4.8 | 1.7 | 30 | 96.2 | –
COc1ccc(CO[C@@H]2COc3nc([N+](=O)[O-])cn3C2)cc1 [PA-736] | 8 (≈ 26.2 µM) | – | – | – | – | – | – | – | – | -3.2 | 3 | 45 | 97.7 | –
O=[N+]([O-])c1cn2c(n1)OC[C@@H](OCc1ccc(C(F)(F)F)cc1C(F)(F)F)C2 [PA-646] | < 5 | 3.12 (≈ 7.59 µM) | – | – | – | – | – | – | – | – | – | – | – | –
